Experiments:
Type in all cases: cell-based, human
[1] = system: STING and cGAS expression; assay: STING and cGAS expression in melanoma cells after 5AZADC (qPCR, immunoblot, RNA FISH); settings: 5 days
Protocol: (§1) FIGS. 30A-30G show DNA demethylation partially recapitulated STING and cGAS expression in human melanoma cell lines. FIG. 30A, qPCR analysis of cGAS expression in indicated human melanoma cells mock treated or treated with 1 μM […] (5AZADC) for 5 days. FIG. 30B, Immunoblot analysis of STING in indicated human melanoma cells treated same as above. FIG. 30C, RNA FISH analysis of STING and cGAS in cells (same as above) treated with 5AZADC same as above. Representative images are shown at 1260×. Bar size, 400 nm. qPCR analysis of IFNB (FIG. 30D) and CXCL10 (FIG. 30E) in cells (same as above) treated with 5AZADC followed by dsDNA transfection at 3 μg/ml dsDNA90 for 3 hours. Immunofluorescence Microscopy analysis of IRF3 translocation (FIG. 30F) and STING translocation (FIG. 30G) in indicated cells treated same as in FIG. 30D. Representative images are shown at 1260×. Bar size, 500 nm.
In view of this, it was examined whether STING or cGAS expression was suppressed by epigenetic processes, such as by hypermethylation of the promoter regions (20, 21). Indeed, databank analysis indicated the presence of considerable CpG islands within the STING and cGAS promoter region. As such, melanoma cells lacking either STING or cGAS expression were treated with the de-methylating agent 5-Aza-2′-deoxycytidine (5AZADC) for 5 days and evaluated recapitulation of STING or cGAS expression. […] Therefore DNA hypermethylation is involved in silencing STING or cGAS expression in some melanoma cells (A375 and MeWo). However it is not yet clear why expression levels of STING are muted in the remainder melanoma cells (G361, SK-MEL-5). Other epigenetic modifications such as histone modifications or other transcription regulator factors such as miRNA could be involved in suppressing STING and/or cGAS expression (Jin et al., 2013, Yarbrough et al., 2014). To determine if reconstitution of STING/cGAS expression rescued STING-dependent dsDNA signaling, IFNB and CXCL10 induction was examined in 5AZADC treated melanoma cells following dsDNA stimulation. […] Thus, demethylating agents may be able to partially rescue STING-dependent innate immune gene induction in select melanoma cells.
Equal amounts of proteins were resolved on sodium dodecyl sulfate (SDS)-Polyacrylamide gels and then transferred to polyvinylidene fluoride (PVDF) membranes (Millipore). After blocking with 5% Blocking Reagent, membranes were incubated with various primary antibodies (and appropriate secondary antibodies). The image was resolved using an enhanced chemiluminescence system ECL (Thermo Scientific) and detected by autoradiography (Kodak). Antibodies: rabbit polyclonal antibody against STING was developed in our laboratory as described previously in Ishikawa et al, 2008; other antibodies were obtained from following sources: β-actin (Sigma Aldrich), p-IRF3 (Cell Signaling), IRF3 (Santa Cruz Biotechnology), p-p65 (Cell Signaling), p65 (Cell Signaling), p-TBK1 (Cell Signaling), TBK1 (Abcam), cGAS (Cell Signaling).
Total RNA was reverse-transcribed using QuantiTect Reverse Transcription Kit (Qiagen). Real-time PCR was performed with the TaqMan gene Expression Assay (Applied Biosystems).
STING and cGAS RNA probed was custom designed by ACD and RNA in situ Hybridization was performed using RNAscope® Multiplex Fluorescent Reagent Kit for cultured cells and 2-plex RNAscope® Reagent Kit for FFPE cells and tissue following the manufacturer's instruction.

[2] = system: STING-dependent dsDNA signaling; assay: IFNB and CXCL10 induction by dsDNA in 5AZADC treated melanoma cells
Protocol: as §1
In view of this, it was examined whether STING or cGAS expression was suppressed by epigenetic processes, such as by hypermethylation of the promoter regions (20, 21). Indeed, databank analysis indicated the presence of considerable CpG islands within the STING and cGAS promoter region. As such, melanoma cells lacking either STING or cGAS expression were treated with the de-methylating agent 5-Aza-2′-deoxycytidine (5AZADC) for 5 days and evaluated recapitulation of STING or cGAS expression. […] Therefore DNA hypermethylation is involved in silencing STING or cGAS expression in some melanoma cells (A375 and MeWo). However it is not yet clear why expression levels of STING are muted in the remainder melanoma cells (G361, SK-MEL-5). Other epigenetic modifications such as histone modifications or other transcription regulator factors such as miRNA could be involved in suppressing STING and/or cGAS expression (Jin et al., 2013, Yarbrough et al., 2014). […]
Total RNA was reverse-transcribed using QuantiTect Reverse Transcription Kit (Qiagen). […]

cGAS expression = cGAS expression (qPCR) in cGAS negative colon cancer cells after epigenetic drug treatment; settings: LS174T, SW480, SW1417, SW48, HT116; 5 days; rescued: SW480 and HT116
Protocol: FIGS. 5A-5F show STING activation and cytosolic DNA pathway in colon cancer cells were mostly defective: A series of colon cancer cells as well as normal cell controls were either mock transfected or transfected with dsDNA90 at 3 μg/ml for 3 hours, and were analyzed by Immunofluorescence Microscopy for STING translocation (FIG. 5A), IRF3 translocation (FIG. 5B), and p65 translocation (FIG. 5C). (FIG. 5D) Cells, same as above, were either mock transfected or transfected with dsDNA90 at 3 μg/ml for indicated time periods followed by immunoblot analysis for STING phosphorylation as well as phosphorylation of TBK1, IRF3 and p65. β-actin was used as loading control. (FIG. 5E) Cells, same as above, were analyzed by qPCR for cGAS expression. (FIG. 5F) Cells that have undetectable level of cGAS in E were treated with 1 μM 5-azacytidine for […], followed by qPCR analysis for cGAS expression. […] Error bars indicate s.d.
FIGS. 15A-15E show cGAS expression is suppressed in many human colon cancer cell lines and can be partially recapitulated through DNA demethylation. […]
To complement the above study, the expression of cGAS in the colon cancer cell-lines was examined. […] Given these findings, examination of the expression of cGAS in 47 human colon cancers at various stages of tumorigenesis was analyzed (FIG. 13C). Expression of cGAS was low to undetectable in approximately 30% of cells analyzed. […]

[3] = system: STING-dependent dsDNA signaling; assay: STING signal activation by dsDNA90 in colon cancer cells after demethylation; settings: for phosphorylation of TBK1 and IRF3 after dsDNA: 5AZADC 5 days then dsDNA90 3 μg/ml

Which results are given for Nc1ncn([C@H]2C[C@H](O)[C@@H](CO)O2)c(=O)n1 [5AZADC, 5-Aza-2′-deoxycytidine]?
cGAS expression ([1]; A375 cells): cGAS expression was recovered; STING expression ([1]; G361 and SK-MEL-5 cells): STING remained absent; STING expression ([1]; MeWo cells, immunoblot and RNA FISH): STING expression was restored; cGAS expression ([1]; SK-MEL-5 cells): partially restored; cGAS expression ([1]; SK-MEL-24 cells): did not seem to affect cGAS expression level; STING function following dsDNA stimulation ([2]; G361 or SK-MEL-5 cells): no STING function was observed; IFNB induction following dsDNA stimulation ([2]; STING rescued MeWo cells): modest expression of IFNB; IFNB and CXCL10 induction following dsDNA stimulation ([2]; cGAS rescued A375 cells): Induction of both IFNB and CXCL10 production was observed; cells in which cGAS expression was rescued (cGAS expression): 2 of the 5; expression of type I IFN and IL-1β after dsDNA ([3]; 5AZADC treated SW480 and HT116, dsDNA90 3 μg/ml for 3 hours): modest expression of type I IFN and IL-1β; phosphorylation of TBK1 and IRF3 after dsDNA ([3]; LS174T (cGAS not rescued)): not LS174T cells regained phosphorylation of TBK1 and IRF3; phosphorylation of TBK1 and IRF3 after dsDNA ([3]; SW480, HT116 (cGAS rescued)): regained phosphorylation of TBK1 and IRF3
